Non-standard residues stand in square brackets, D forms with d. Residues, ends and D or L forms follow the SMILES beside them. Orn = NCCC[C@H](N)C(=O)O
Assays:
[1] = system: Listeria monocytogenes; test: Antibacterial activity against leucocin A-resistant Listeria monocytogenes B73-MR1 after 16 hrs by micro-gel well diffusion assay; format: functional
[2] = system: Listeria monocytogenes; test: Antibacterial activity against leucocin A-sensitive Listeria monocytogenes B73 after 16 hrs by micro-gel well diffusion assay; format: functional
[3] = system: Escherichia coli; test: Antibacterial activity against Escherichia coli HB101 at 200 ug/mL after 16 hrs by broth microdilution assay; format: functional
[4] = system: Listeria monocytogenes; test: Antibacterial activity against leucocin A-resistant Listeria monocytogenes B73-MR1 after 16 hrs by broth microdilution assay; format: functional, organism-based; details: B73-MR1, 16 h
[5] = system: Listeria monocytogenes; test: Antilysterial activity against leucocin A-sensitive Listeria monocytogenes B73 assessed as bacterial lysis half life at 10 uM by broth microdilution assay; format: functional, organism-based
[6] = system: Micrococcus luteus; test: Antibacterial activity against Micrococcus luteus NCTC 8340 after 16 hrs by broth microdilution assay; format: functional, organism-based; details: NCTC 8340, 16 h
[7] = system: Listeria monocytogenes; test: Antibacterial activity against leucocin A-sensitive Listeria monocytogenes B73 after 16 hrs by broth microdilution assay; format: functional, organism-based; details: B73, 16 h
[8] = system: Micrococcus luteus; test: Antibacterial activity against Micrococcus luteus NCTC 8340 after 16 hrs by micro-gel well diffusion assay; format: functional
[9] = system: Listeria monocytogenes; test: Antilysterial activity against leucocin A-sensitive Listeria monocytogenes B73 assessed as bacterial lysis at 10 uM after 60 mins by broth microdilution assay; format: functional
[10] = system: Listeria monocytogenes; test: Antilysterial activity against leucocin A-sensitive Listeria monocytogenes B73 assessed as bacterial lysis per min at 10 uM by broth microdilution assay; format: functional

Row | SMILES | ICmax [1] | ICmax [2] | Activity [3] [%] | IC50 [4] | T1/2 [5] [min] | IC50 [6] | IC50 [7] | ICmax [8] | Activity [9] [%] | Activity [10] [%]
1 | CC(C)C[C@@H]1NC(=O)[C@H](CCCCN)NC(=O)[C@H](C(C)C)NC(=O)[C@H](Cc2ccc(O)cc2)NC(=O)[C@H](CCC(N)=O)NC(=O)[C@H](CC(N)=O)NC(=O)[C@@H](Cc2ccccc2)NC(=O)[C@H](Cc2ccccc2)NC(=O)[C@@H]2CCCN2C(=O)[C@@H](Cc2ccccc2)NC1=O [TYROCIDINE A1] | 16 µM | 38 µM | <50 | 10 µM | 32.2 | 26 µM | 18 µM | 72 µM | 62 | 1.47
2 | CC(C)C[C@@H]1NC(=O)[C@H](CCCN)NC(=O)[C@H](C(C)C)NC(=O)[C@H](Cc2ccc(O)cc2)NC(=O)[C@H](CCC(N)=O)NC(=O)[C@H](CC(N)=O)NC(=O)[C@@H](Cc2ccccc2)NC(=O)[C@H](Cc2c[nH]c3ccccc23)NC(=O)[C@@H]2CCCN2C(=O)[C@@H](Cc2ccccc2)NC1=O [TYROCIDINE B] | 12 µM | 15 µM | <50 | 7.7 µM | 28.8 | 6.5 µM | 10 µM | 9.9 µM | 64 | 1.53
3 | CC(C)C[C@@H]1NC(=O)[C@H](CCCN)NC(=O)[C@H](C(C)C)NC(=O)[C@@H]2CCCN2C(=O)[C@@H](Cc2ccccc2)NC(=O)[C@H](CC(C)C)NC(=O)[C@H](CCCN)NC(=O)[C@H](C(C)C)NC(=O)[C@@H]2CCCN2C(=O)[C@@H](Cc2ccccc2)NC1=O [GRAMICIDIN S] (cyclo(L[dF]PV[Orn]L[dF]PV[Orn])) | 6.2 µM | 11 µM |  | 3.9 µM | 38.5 | 6.7 µM | 6.6 µM | 31 µM | 70 | 1.61
4 | CC(C)C[C@@H]1NC(=O)[C@H](CCCN)NC(=O)[C@H](C(C)C)NC(=O)[C@H](Cc2ccc(O)cc2)NC(=O)[C@H](CCC(N)=O)NC(=O)[C@H](CC(N)=O)NC(=O)[C@@H](Cc2c[nH]c3ccccc23)NC(=O)[C@H](Cc2c[nH]c3ccccc23)NC(=O)[C@@H]2CCCN2C(=O)[C@@H](Cc2ccccc2)NC1=O [TYROCIDINE C] | 11 µM | 13 µM | <50 | 7 µM | 31.2 | 6.4 µM | 9.5 µM | 9 µM | 66 | 1.48
5 | CC(C)C[C@@H]1NC(=O)[C@H](CCCCN)NC(=O)[C@H](C(C)C)NC(=O)[C@H](Cc2ccc(O)cc2)NC(=O)[C@H](CCC(N)=O)NC(=O)[C@H](CC(N)=O)NC(=O)[C@@H](Cc2c[nH]c3ccccc23)NC(=O)[C@H](Cc2c[nH]c3ccccc23)NC(=O)[C@@H]2CCCN2C(=O)[C@@H](Cc2ccccc2)NC1=O [TYROCIDINE C1] | 16 µM | 22 µM | <50 | 7.5 µM | 27.5 | 7.3 µM | 9.3 µM | 15 µM | 60 | 1.55
6 | CC(C)C[C@@H]1NC(=O)[C@H](CCCCN)NC(=O)[C@H](C(C)C)NC(=O)[C@H](Cc2ccc(O)cc2)NC(=O)[C@H](CCC(N)=O)NC(=O)[C@H](CC(N)=O)NC(=O)[C@@H](Cc2ccccc2)NC(=O)[C@H](Cc2c[nH]c3ccccc23)NC(=O)[C@@H]2CCCN2C(=O)[C@@H](Cc2ccccc2)NC1=O [TYROCIDINE B1] | 10 µM | 15 µM | <50 | 6.7 µM | 29.6 | 4.2 µM | 8.1 µM | 8.9 µM | 63 | 1.68
7 | CC(C)C[C@@H]1NC(=O)[C@H](CCCN)NC(=O)[C@H](C(C)C)NC(=O)[C@H](Cc2ccc(O)cc2)NC(=O)[C@H](CCC(N)=O)NC(=O)[C@H](CC(N)=O)NC(=O)[C@@H](Cc2ccccc2)NC(=O)[C@H](Cc2ccccc2)NC(=O)[C@@H]2CCCN2C(=O)[C@@H](Cc2ccccc2)NC1=O [TYROCIDINE A] (cyclo(F[dF]NQYV[Orn]L[dF]P)) | 16 µM | 25 µM | <50 | 9.9 µM | 32.3 | 22 µM | 13 µM | 70 µM | 59 | 1.62
8 | CC(C)C[C@@H]1NC(=O)[C@H](CCCN)NC(=O)[C@H](C(C)C)NC(=O)[C@H](Cc2ccc(O)cc2)N[C@@H](CCC(=O)O)C(=O)N[C@@H](CC(N)=O)C(=O)[C@@H](Cc2ccccc2)NC(=O)[C@H](Cc2ccccc2)NC(=O)[C@@H]2CCCN2C(=O)[C@@H](Cc2ccccc2)NC1=O [TYROTHRICIN] | 29 µg/mL | 21 µg/mL |  | 9.7 mg/L |  | 3.5 mg/L | 12 mg/L | 6.3 µg/mL |  | 

Source: ChEMBL document CHEMBL1155276, “Anti-listerial activity and structure-activity relationships of the six major tyrocidines, cyclic decapeptides from Bacillus aneurinolyticus” (Bioorg Med Chem, 2009)
